Measured values taken from the supplement of paper PMC12463676, “Small-molecule dissolution of stress granules by redox modulation benefits ALS models” (Nature Chemical Biology, 2025).

Assays:
[1] = compound: NC(=O)CCCCC1CCSS1 [lipoamide]; test: thermal stability z-score vs DMSO; higher = more thermally stabilized by treatment; settings: HeLa, lipoamide concentration 100 µM
Experimental: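 Cellular thermal proteome profiling in HeLa cells. Cells were treated with 100 µM lipoamide for 1 h, with or without 1 mM arsenate for a further 1 h, then heated to ten temperatures (37-66.3 °C), and soluble protein was quantified by TMT mass spectrometry relative to 0.1% DMSO controls. The thermal stability score (sum of log2 fold changes minus the abundance score) was transformed to a z-score; mean of n = 3 experiments.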

[2] = compound: O=[As]([O-])(O)O.[K+] [potassium arsenate]; test: as above; settings: HeLa; arsenate concentration 1 mM
Experimental: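 Cellular thermal proteome profiling in HeLa cells treated with 1 mM arsenate for 1 h (DMSO pretreatment), heated to ten temperatures (37-66.3 °C). Soluble protein was quantified by TMT mass spectrometry relative to DMSO controls; the thermal stability score was transformed to a z-score; mean of n = 3 experiments.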

[3] = arsenate co-treatment: 1 mM arsenate 1 h
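Note: each temperature applied for 3 min, abundance score taken as mean log2 fold change at the two lowest temperatures, z-score obtained by mean subtraction and division by SD.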

Sequence of UniProt Q9Y605 (Q9Y605 whole entry): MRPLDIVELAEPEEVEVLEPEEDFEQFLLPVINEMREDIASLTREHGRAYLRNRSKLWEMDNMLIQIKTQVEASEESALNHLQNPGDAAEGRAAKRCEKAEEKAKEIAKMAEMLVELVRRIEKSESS
Sequence of UniProt Q96EY9 (Q96EY9 whole entry): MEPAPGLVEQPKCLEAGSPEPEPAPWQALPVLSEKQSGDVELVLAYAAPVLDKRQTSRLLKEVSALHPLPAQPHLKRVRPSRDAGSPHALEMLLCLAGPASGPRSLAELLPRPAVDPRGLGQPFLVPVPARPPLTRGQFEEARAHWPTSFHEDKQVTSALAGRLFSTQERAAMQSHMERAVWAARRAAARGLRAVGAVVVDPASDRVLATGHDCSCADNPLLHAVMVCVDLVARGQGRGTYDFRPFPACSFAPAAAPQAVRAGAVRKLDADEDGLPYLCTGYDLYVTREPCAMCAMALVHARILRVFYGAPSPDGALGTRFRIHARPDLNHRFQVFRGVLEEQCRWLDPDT
Sequence of UniProt Q9NSK0 (Q9NSK0 whole entry): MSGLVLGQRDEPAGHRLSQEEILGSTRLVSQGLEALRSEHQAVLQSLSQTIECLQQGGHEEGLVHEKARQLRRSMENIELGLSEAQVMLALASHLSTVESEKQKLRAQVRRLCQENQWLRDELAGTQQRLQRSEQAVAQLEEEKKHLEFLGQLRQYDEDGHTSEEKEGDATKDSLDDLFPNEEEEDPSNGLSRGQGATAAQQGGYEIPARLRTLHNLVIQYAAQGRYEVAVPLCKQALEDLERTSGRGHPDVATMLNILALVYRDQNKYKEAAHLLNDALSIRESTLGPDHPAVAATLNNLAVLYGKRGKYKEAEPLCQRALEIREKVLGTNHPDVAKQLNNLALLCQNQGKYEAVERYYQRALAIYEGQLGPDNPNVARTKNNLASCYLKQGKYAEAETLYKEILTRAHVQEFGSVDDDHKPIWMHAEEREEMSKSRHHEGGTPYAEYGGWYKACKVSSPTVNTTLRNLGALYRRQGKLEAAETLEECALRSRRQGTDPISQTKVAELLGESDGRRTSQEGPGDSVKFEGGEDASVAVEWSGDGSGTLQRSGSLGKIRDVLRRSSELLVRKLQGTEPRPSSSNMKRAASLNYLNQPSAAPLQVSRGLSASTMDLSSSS
Sequence of UniProt Q92973 (Q92973 whole entry): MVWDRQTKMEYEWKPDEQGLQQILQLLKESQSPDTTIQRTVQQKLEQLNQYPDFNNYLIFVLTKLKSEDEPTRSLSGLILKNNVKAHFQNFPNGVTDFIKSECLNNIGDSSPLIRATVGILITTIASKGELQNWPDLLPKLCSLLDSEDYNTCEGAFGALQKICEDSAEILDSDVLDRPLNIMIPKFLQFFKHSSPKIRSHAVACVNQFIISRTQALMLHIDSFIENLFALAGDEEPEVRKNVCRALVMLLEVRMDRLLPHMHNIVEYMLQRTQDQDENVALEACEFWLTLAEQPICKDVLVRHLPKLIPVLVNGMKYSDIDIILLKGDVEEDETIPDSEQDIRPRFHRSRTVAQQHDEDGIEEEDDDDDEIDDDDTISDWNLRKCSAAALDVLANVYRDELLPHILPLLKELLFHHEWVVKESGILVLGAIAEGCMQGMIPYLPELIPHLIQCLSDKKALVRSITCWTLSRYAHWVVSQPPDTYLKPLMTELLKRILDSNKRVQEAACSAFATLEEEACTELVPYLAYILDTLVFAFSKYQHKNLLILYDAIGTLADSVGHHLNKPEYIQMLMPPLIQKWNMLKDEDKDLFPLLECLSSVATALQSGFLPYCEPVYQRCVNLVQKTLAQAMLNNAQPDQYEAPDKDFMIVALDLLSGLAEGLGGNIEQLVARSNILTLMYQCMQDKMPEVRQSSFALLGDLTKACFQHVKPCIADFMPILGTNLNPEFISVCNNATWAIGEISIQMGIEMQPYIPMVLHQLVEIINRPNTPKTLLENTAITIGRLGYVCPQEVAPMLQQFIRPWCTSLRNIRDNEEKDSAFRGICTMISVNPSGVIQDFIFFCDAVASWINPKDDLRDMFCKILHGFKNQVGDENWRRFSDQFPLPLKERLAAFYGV
Sequence of UniProt Q9NP80 (Q9NP80 whole entry): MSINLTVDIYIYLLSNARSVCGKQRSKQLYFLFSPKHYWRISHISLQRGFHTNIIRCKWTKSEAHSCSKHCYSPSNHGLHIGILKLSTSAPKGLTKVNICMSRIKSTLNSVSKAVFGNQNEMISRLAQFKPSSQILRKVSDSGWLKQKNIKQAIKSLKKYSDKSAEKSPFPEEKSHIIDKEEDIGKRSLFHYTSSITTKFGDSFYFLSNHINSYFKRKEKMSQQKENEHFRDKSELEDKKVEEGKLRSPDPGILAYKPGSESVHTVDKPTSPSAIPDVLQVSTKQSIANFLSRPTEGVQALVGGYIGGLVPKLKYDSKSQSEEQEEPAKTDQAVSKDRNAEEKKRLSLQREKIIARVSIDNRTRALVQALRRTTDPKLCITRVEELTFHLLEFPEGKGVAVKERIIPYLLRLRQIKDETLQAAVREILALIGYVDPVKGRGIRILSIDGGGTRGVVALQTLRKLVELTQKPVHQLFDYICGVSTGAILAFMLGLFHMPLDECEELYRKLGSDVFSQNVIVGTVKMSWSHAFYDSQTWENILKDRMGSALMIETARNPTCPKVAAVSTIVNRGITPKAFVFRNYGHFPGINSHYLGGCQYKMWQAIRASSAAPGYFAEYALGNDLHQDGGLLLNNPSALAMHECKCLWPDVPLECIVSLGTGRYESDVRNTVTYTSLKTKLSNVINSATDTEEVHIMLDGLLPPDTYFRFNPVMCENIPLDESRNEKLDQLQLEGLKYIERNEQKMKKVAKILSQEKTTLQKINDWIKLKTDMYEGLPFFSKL
Sequence of UniProt Q8TEW0 (Q8TEW0 whole entry): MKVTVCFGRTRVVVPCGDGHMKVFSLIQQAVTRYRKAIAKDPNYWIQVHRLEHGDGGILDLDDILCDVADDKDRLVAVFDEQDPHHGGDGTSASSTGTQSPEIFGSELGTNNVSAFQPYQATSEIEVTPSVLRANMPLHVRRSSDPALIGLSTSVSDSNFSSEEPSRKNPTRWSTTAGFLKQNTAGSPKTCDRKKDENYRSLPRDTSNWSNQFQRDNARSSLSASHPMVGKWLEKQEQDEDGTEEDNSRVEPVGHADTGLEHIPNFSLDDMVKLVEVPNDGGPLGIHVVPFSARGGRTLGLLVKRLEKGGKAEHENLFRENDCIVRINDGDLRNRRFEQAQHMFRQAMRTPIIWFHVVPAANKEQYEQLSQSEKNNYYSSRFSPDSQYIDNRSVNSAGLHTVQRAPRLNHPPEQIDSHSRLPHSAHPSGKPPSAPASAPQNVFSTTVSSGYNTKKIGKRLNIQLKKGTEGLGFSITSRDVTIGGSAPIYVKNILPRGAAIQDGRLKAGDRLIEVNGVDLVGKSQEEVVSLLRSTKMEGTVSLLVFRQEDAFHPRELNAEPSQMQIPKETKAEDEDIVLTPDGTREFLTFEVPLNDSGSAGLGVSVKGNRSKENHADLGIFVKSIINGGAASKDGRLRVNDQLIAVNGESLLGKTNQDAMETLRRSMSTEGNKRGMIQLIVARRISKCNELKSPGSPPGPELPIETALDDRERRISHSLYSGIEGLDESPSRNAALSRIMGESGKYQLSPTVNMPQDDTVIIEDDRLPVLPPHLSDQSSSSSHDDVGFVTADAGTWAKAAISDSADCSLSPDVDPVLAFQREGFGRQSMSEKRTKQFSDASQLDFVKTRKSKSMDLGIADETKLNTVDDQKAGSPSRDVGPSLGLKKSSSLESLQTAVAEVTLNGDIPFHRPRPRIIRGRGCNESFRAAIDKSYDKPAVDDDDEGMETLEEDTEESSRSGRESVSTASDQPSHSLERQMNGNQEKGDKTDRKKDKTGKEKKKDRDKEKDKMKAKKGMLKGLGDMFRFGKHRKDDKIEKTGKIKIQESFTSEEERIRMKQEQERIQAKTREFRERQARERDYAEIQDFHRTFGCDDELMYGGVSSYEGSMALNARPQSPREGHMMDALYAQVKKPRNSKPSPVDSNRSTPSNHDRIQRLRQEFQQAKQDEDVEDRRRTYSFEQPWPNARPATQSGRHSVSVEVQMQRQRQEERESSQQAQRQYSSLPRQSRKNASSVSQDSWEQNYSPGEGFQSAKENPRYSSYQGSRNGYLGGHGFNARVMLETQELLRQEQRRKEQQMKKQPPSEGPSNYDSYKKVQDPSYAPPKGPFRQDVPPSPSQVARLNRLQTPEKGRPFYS
Sequence of UniProt Q9NWU2 (Q9NWU2 whole entry): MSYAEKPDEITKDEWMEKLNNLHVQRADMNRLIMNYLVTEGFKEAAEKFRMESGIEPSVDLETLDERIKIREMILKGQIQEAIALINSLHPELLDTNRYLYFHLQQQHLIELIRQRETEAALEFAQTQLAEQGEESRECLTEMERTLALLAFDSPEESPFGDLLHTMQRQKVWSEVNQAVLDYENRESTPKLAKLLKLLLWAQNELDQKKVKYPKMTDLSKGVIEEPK
Sequence of UniProt Q9UNF0 (Q9UNF0 whole entry): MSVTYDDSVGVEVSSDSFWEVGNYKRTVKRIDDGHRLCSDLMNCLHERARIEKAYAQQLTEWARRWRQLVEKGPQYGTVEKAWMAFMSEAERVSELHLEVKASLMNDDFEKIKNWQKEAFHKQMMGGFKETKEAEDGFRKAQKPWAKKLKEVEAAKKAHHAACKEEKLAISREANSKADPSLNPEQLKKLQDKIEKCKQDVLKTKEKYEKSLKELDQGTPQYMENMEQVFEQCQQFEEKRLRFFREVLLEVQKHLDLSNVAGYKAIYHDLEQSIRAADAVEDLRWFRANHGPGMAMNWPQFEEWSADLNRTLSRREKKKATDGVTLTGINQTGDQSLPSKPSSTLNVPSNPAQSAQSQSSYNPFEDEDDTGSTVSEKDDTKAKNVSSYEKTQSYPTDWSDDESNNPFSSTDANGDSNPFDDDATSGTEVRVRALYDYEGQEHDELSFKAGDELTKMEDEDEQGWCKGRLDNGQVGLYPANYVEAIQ
Sequence of UniProt P62937 (P62937 whole entry, looked up): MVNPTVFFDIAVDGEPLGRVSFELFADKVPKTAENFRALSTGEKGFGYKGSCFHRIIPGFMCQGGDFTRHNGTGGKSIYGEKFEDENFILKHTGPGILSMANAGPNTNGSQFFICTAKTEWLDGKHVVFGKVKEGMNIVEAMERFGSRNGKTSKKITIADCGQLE

| Target | thermal stability z-score [1, 3] | thermal stability z-score ([1]; arsenate co-treatment: none) | thermal stability z-score [2] |
| --- | --- | --- | --- |
| PANX1 (UniProt Q96RD7) | 0.67 | 0.0977 | 0.123 |
| STARD7 (UniProt Q9NQZ5) | 0.0874 | 1.42 | 1.07 |
| COMMD9 (UniProt Q9P000) | -0.221 | -0.146 | -0.0631 |
| RPP21 (UniProt Q9H633) | -0.411 | -0.242 | -0.209 |
| ARL6IP4 (UniProt Q66PJ3) | 0.727 | -0.0769 | 0.572 |
| PIGN (UniProt O95427) | 0.0724 | -0.0621 | 0.41 |
| SNRPF (UniProt P62306) | 0.0402 | -0.072 | 0.116 |
| ZNF638 (UniProt Q14966) | 0.83 | 0.27 | -0.032 |
| TBC1D17 (UniProt Q9HA65) | -0.114 | -0.107 | -0.0293 |
| PSMB3 (UniProt P49720) | 1.04 | 0.994 | 0.157 |
| MRPS5 (UniProt P82675) | -0.158 | 0.0282 | 0.0198 |
| PHYH (UniProt O14832) | 0.0197 | -0.12 | -0.196 |
| MLST8 (UniProt Q9BVC4) | -0.537 | 0.0244 | 0.14 |
| NUDC (UniProt Q9Y266) | 0.104 | 0.205 | 0.573 |
| DNAJC19 (UniProt Q96DA6) | 0.522 | 0.211 | 0.253 |
| RPS17 (UniProt P08708) | 0.31 | -0.0463 | -0.614 |
| ABHD17C (UniProt Q6PCB6) | -0.923 | -0.152 | -0.29 |
| PPIP5K2 (UniProt O43314) | 0.258 | 0.00428 | -0.606 |
| NEXN (UniProt Q0ZGT2) | 0.00122 | 0.037 | 0.0665 |
| MRFAP1 (UniProt Q9Y605) | 0.86 | -0.215 | -0.23 |
| SH2D4A (UniProt Q9H788) | 0.0871 | 0.021 | 0.112 |
| LSM14A (UniProt Q8ND56) | 0.62 | -0.111 | 1.03 |
| MTAP (UniProt Q13126) | 0.145 | -1.41 | -1.77 |
| COA1 (UniProt Q9GZY4) | 0.229 | 0.587 | 0.234 |
| GEMIN4 (UniProt P57678) | -0.347 | -0.228 | -0.0793 |
| MMP15 (UniProt P51511) | -0.901 | -0.632 | -0.00399 |
| ZFP91 (UniProt Q96JP5) | -0.301 | 0.00195 | -0.352 |
| APC (UniProt P25054) | 0.728 | 0.273 | 0.816 |

| Target | thermal stability z-score [1, 3] | thermal stability z-score ([1]; arsenate co-treatment: none) | thermal stability z-score [2] |
| --- | --- | --- | --- |
| CCNB2 (UniProt O95067) | 0.346 | -0.108 | 0.36 |
| RPTOR (UniProt Q8N122) | 0.0585 | 0.132 | 0.227 |
| ADAT3 (UniProt Q96EY9) | -0.293 | 0.276 | -0.301 |
| TNS3 (UniProt Q68CZ2) | 0.341 | 0.204 | 1.32 |
| PACSIN2 (UniProt Q9UNF0) | 0.246 | 0.134 | 0.638 |
| IDI1 (UniProt Q13907) | 1.01 | 0.458 | 0.042 |
| DCUN1D4 (UniProt Q92564) | 0.0389 | -0.0281 | -0.0972 |
| QPCTL (UniProt Q9NXS2) | -0.434 | -0.457 | -0.256 |
| LAMA5 (UniProt O15230) | -1.26 | -0.93 | 0.045 |
| PARD3 (UniProt Q8TEW0) | 0.02 | 0.0237 | -0.00597 |
| GID8 (UniProt Q9NWU2) | 0.00199 | 0.0715 | -0.0145 |
| NAXD (UniProt Q8IW45) | -0.31 | 0.472 | 0.0249 |
| RTCB (UniProt Q9Y3I0) | 0.445 | 0.0607 | -1.21 |
| TNPO1 (UniProt Q92973) | -1.32 | -1.31 | 1.98 |
| ASH2L (UniProt Q9UBL3) | 0.566 | -0.319 | -1.84 |
| KRI1 (UniProt Q8N9T8) | 0.198 | -0.118 | -0.376 |
| TRAFD1 (UniProt O14545) | -1.34 | -0.816 | -2.25 |
| PNPLA8 (UniProt Q9NP80) | 0.00209 | 0.148 | -0.332 |
| BMP1 (UniProt P13497) | 0.492 | 0.427 | 0.347 |
| DHX37 (UniProt Q8IY37) | 0.321 | 0.303 | 0.359 |
| FAM120C (UniProt Q9NX05) | -0.0604 | -0.0122 | -0.296 |
| PPIA (UniProt P62937) | 0.27 | 0.693 | -0.295 |
| CIAPIN1 (UniProt Q6FI81) | 0.671 | 0.397 | 0.186 |
| RNASEH2C (UniProt Q8TDP1) | -0.258 | -0.493 | -0.406 |
| KLC4 (UniProt Q9NSK0) | -1.48 | 0.259 | 0.297 |
| UQCRC2 (UniProt P22695) | 0.268 | -0.0661 | -2.47 |
| INSR (UniProt P06213) | 0.408 | 0.683 | 0.639 |
